According to ChEMBL document CHEMBL4699652, “Proline Hinged Amphipathic α-Helical Peptide Sensitizes Gram-Negative Bacteria to Various Gram-Positive Antibiotics” (J Med Chem, 2020):
The source made the active and inactive calls.

Key:
Acinetobacter baumannii [1] = test: Sensitization of rifampicin-induced antimicrobial activity against Acinetobacter baumannii OXA infected in mouse skin infection model assessed as reduction in skin ulcer at 7.5 mg/kg, sc TID for 5 days co-treated with 20 ug/kg, sc rifampicin; type: functional, organism-based; details: time 5.0 day
Escherichia coli [2] = test: Antimicrobial activity against Escherichia coli ATCC 25922 assessed as inhibition of bacterial growth incubated for 18 hrs by CLSI based method; type: functional
Staphylococcus aureus [3] = test: Antimicrobial activity against Staphylococcus aureus ATCC 29213 assessed as inhibition of bacterial growth incubated for 18 hrs by CLSI based method; type: functional
Escherichia coli [4] = test: Sensitization of rifampicin-induced antimicrobial activity against Cst-resistant Escherichia coli isolates assessed as inhibition of bacterial growth at 8 ug/ml incubated for 18 hrs by CLSI based method; type: functional, organism-based; details: dose 8.0 µg/ml
Staphylococcus aureus [5] = test: Sensitization of rifampicin-induced antimicrobial activity against methicillin-resistant Staphylococcus aureus assessed as inhibition of bacterial growth at 8 ug/ml incubated for 18 hrs by CLSI based method; type: functional, organism-based; details: dose 8.0 µg/ml
[6] = Drug uptake in human HeLa cells at 1 uM incubated for 4 hrs using TAMRA-labeled compound; type: ADME, cell-based
[7] = Drug uptake in Escherichia coli at 1 uM incubated for 4 hrs using TAMRA-labeled compound; type: ADME
[8] = Drug localization in membrane of Escherichia coli at 1 uM incubated for 4 hrs using TAMRA-labeled compound; type: ADME, cell membranes, Cell membrane
[9] = Drug localization in cytosol of Escherichia coli at 1 uM incubated for 4 hrs using TAMRA-labeled compound; type: ADME, subcellular
Cell membrane [10] = test: Induction of outer membrane permeability in Escherichia coli assessed as periplasmic-beta-lactamase release at 5 uM using CENTA; type: subcellular
Cell membrane [11] = test: Induction of inner membrane permeability in Escherichia coli assessed as cytoplasmic beta-galactosidase release at 5 uM using ONPG
Cell membrane [12] = test: Induction of outer membrane re-arragenemnts in Escherichia coli ATCC 25922 incubated for 4 mins by NPN uptake assay; type: subcellular
Cell membrane [13] = test: Induction of outer membrane re-arragenemnts in Escherichia coli D21f2 incubated for 4 mins by NPN uptake assay; type: subcellular
Escherichia coli [14] = test: Sensitization of linezolid-induced induction of cell killing in Escherichia coli assessed as time needed for bacterial destruction at 8 ug/ml; type: functional; details: dose 8 µg/ml
Cell membrane [15] = test: Induction of membrane permeability in Escherichia coli assessed as increase in fine surface roughness at 25 uM by atomic force microscopy; type: subcellular
Lipopolysaccharide (LPS) [16] = test: Binding affinity to LPS in Escherichia coli D21 assessed as localization in membrane regions at 1 uM using TAMRA-labeled compound by confocal fluorescence microscopy
Lipopolysaccharide (LPS) [17] = test: Binding affinity to LPS in Escherichia coli D21e19 assessed as localization in membrane regions at 1 uM using TAMRA-labeled compound by confocal fluorescence microscopy
Lipopolysaccharide (LPS) [18] = test: Binding affinity to LPS in Escherichia coli D21e7 assessed as localization in membrane regions at 1 uM using TAMRA-labeled compound by confocal fluorescence microscopy
Lipopolysaccharide (LPS) [19] = test: Binding affinity to LPS in Escherichia coli D21f1 assessed as localization in membrane regions at 1 uM using TAMRA-labeled compound by confocal fluorescence microscopy
Lipopolysaccharide (LPS) [20] = test: Binding affinity to LPS in Escherichia coli D21f2 assessed as localization in membrane regions at 1 uM using TAMRA-labeled compound by confocal fluorescence microscopy
Escherichia coli [21] = test: Binding affinity to outer membrane in POPE/POPG lipid layers containing LPS by SPR assay
Escherichia coli [22] = test: Binding affinity to inner membrane using POPE/POPG (7/3) by SPR assay
Escherichia coli [23] = test: Binding affinity to cell membrane using POPC/cholesterol (8/2) by SPR assay
Cell membrane [24] = test: Induction of cell membrane fluidity changes in Escherichia coli ATCC 25922 by Laurdan-dye based fluorescence assay; type: subcellular
Cell membrane [25] = test: Induction of cell membrane fluidity changes in Escherichia coli D21f2 by Laurdan-dye based fluorescence assay; type: subcellular
Escherichia coli [26] = test: Antimicrobial activity against Escherichia coli ATCC 25922 assessed as reduction in cell viability at 10 to 10000 uM by propidium iodide staining based assay; type: functional, organism-based; details: dose microM 10-10000
Pseudomonas aeruginosa [27] = test: Sensitization of colistin-induced antimicrobial activity against multidrug-resistant Pseudomonas aeruginosa infected in ICR CD1 mouse model of sepsis protection model assessed as increase in mouse survival at 25 mg/kg, sc QD for 1 days co-treated with 40 mg/kg, sc QD colistin; type: functional; details: time 1 day
Escherichia coli [28] = test: Antimicrobial activity against NDM-1 producing carbapenem-resistant Escherichia coli infected in ICR CD1 mouse model of sepsis protection model assessed as increase in mouse survival at 40 mg/kg, sc QD; type: functional, organism-based
Pseudomonas aeruginosa [29] = test: Antimicrobial activity against multidrug-resistant Pseudomonas aeruginosa infected in ICR CD1 mouse model of sepsis protection model assessed as increase in mouse survival at 40 mg/kg, sc QD; type: functional, organism-based
Escherichia coli [30] = test: Sensitization of linezolid-induced antimicrobial activity against Escherichia coli ATCC 25922 infected in ICR CD1 mouse model of sepsis protection model assessed as increase in mouse survival at 30 mg/kg, ip q1h x 8 hrs for 7 days co-treated with 25 mg/kg, sc q4h x 8 hrs linezolid; type: functional, organism-based; details: time 7.0 day
Escherichia coli [31] = test: Sensitization of rifampicin-induced antimicrobial activity against Escherichia coli ATCC 25922 infected in ICR CD1 mouse model of sepsis protection model assessed as mouse survival at 30 mg/kg, ip q1h x 8 hrs for 1 days co-treated with 5 mg/kg, sc q4h x 8 hrs rifampicin; type: functional; details: ATCC 25922, 24 h, time 1 day
Escherichia coli [32] = test: Sensitization of linezolid-induced antimicrobial activity against Escherichia coli ATCC 25922 infected in ICR CD1 mouse model of sepsis protection model assessed as mouse survival at 30 mg/kg, ip q1h x 8 hrs for 1 days co-treated with 25 mg/kg, sc q4h x 8 hrs linezolid; type: functional; details: ATCC 25922, 24 h, time 1 day
Escherichia coli [33] = test: Sensitization of rifampicin-induced antimicrobial activity against Escherichia coli ATCC 25922 infected in ICR CD1 mouse neutropenic thigh infection model assessed as reduction in bacterial CFU at 240 mg/kg, ip q1h x 8 hrs co-treated with 20 mg/kg, sc q4h x 8 hrs rifampicin; type: functional, organism-based
Escherichia coli [34] = test: Sensitization of linezolid-induced antimicrobial activity against Escherichia coli ATCC 25922 infected in ICR CD1 mouse neutropenic thigh infection model assessed as reduction in bacterial CFU at 150 mg/kg, ip q2h x 4 hrs co-treated with 150 mg/kg, sc q2h x 4 hrs linezolid; type: functional, organism-based
Acinetobacter baumannii [35] = test: Sensitization of linezolid-induced antimicrobial activity against Acinetobacter baumannii OXA infected in mouse skin infection model assessed as reduction in skin ulcer at 7.5 mg/kg, sc TID for 5 days co-treated with 3.1 mg/kg, sc linezolid; type: functional, organism-based; details: time 5.0 day
Acinetobacter baumannii [36] = test: Sensitization of clarithromycin-induced antimicrobial activity against Acinetobacter baumannii OXA infected in mouse skin infection model assessed as reduction in skin ulcer at 7.5 mg/kg, sc TID for 5 days co-treated with 20 ug/kg, sc clarithromycin; type: functional, organism-based; details: time 5.0 day

Ac-KLLKLLKKPLKLLK-NH2
> 80 µM: MIC (Escherichia coli [2]) | MIC (Staphylococcus aureus [3])
Active: Drug uptake [7] | Drug uptake [8]
75%: Activity (Pseudomonas aeruginosa [27])
active: Activity (Acinetobacter baumannii [1]) | Activity (Escherichia coli [4]) | Activity (Staphylococcus aureus [5]) | Activity (Cell membrane [12]) | Activity (Cell membrane [15]) | Activity (Lipopolysaccharide (LPS) [16]) | Activity (Lipopolysaccharide (LPS) [17]) | Activity (Lipopolysaccharide (LPS) [18]) | Activity (Lipopolysaccharide (LPS) [19]) | Activity (Lipopolysaccharide (LPS) [20]) | Activity (Escherichia coli [22]) | Activity (Cell membrane [24]) Dose-dependent effect | Activity (Escherichia coli [30]) | Activity (Escherichia coli [33]) | Activity (Escherichia coli [34]) | Activity (Acinetobacter baumannii [35]) | Activity (Acinetobacter baumannii [36])
Not Active: Drug uptake [6] | Drug uptake [9]
90%: survival at 30 mg/kg (Escherichia coli [31]) | survival at 30 mg/kg (Escherichia coli [32])
inactive: Activity (Cell membrane [10]) | Activity (Cell membrane [11]) | Activity (Cell membrane [13]) | Activity (Escherichia coli [21]) | Activity (Escherichia coli [23]) | Activity (Cell membrane [25]) | Activity (Escherichia coli [26]) | Activity (Escherichia coli [28]) | Activity (Pseudomonas aeruginosa [29])
8 h: Time (Escherichia coli [14])
